Here are results for 25 molecules from patent US12479830B2, “Homopiperazinyl and homopiperidinyl quinazolin-4(3H)-one derivatives having multimodal activity against pain” (ESTEVE PHARMACEUTICALS, S.A., priority 2019, dated 2025).

In assay [1] the target is Human α2δ-1 subunit of Cav2.2 calcium channel (Homo sapiens, UniProt P54289). Briefly: Human α2δ-1 subunit of Cav2.2 calcium channel assay ([3H]-gabapentin binding). The conditions noted are these: binding to the α2δ-1 subunit of voltage-gated calcium channels, expressed as Ki class; + also covers inhibition between 1% and 50%. As for the experimental part: Human α2δ-1 Subunit of Cav2.2 Calcium Channel Assay
Human α2δ-1 enriched membranes (2.5 μg) were incubated with 15 nM of radiolabeled [^3H]-Gabapentin in assay buffer containing Hepes-KOH 10 mM. pH 7.4. NSB (non specific binding) was measured by adding 10 μM pregabalin. The binding of the test compound was measured at either one concentration (% inhibition at 1 or 10 μM) or five different concentrations to determine affinity values (Ki). After 60 min incubation at 27° C., binding reaction was terminated by filtering through Multiscreen GF/C (Millipore) presoaked in 0.5% polyethyleneimine in Vacuum Manifold Station, followed by 3 washes with ice-cold filtration buffer containing 50 mM Tris-HCl, pH 7.4. Filter plates were dried at 60° C. for 1 h and 30 μL of scintillation cocktail were added to each well before radioactivity reading. Readings were performed in a Trilux 1450 Microbeta radioactive counter (Perkin Elmer).

The next assay addresses T1, Human σ1 receptor (Homo sapiens, UniProt Q99720).
T1 construct: expressed in transfected cells; host or cells: HEK-293
In words: Human σ1 receptor radioligand assay ([3H](+)-pentazocine binding). The conditions noted are these: binding to the σ1 receptor, expressed as Ki class; + also covers inhibition between 1% and 50%. As for the experimental part: Human σ1 Receptor Radioligand Assay
Transfected HEK-293 membranes (7 μg) were incubated with 5 nM of [^3H](+)-pentazocine in assay buffer containing Tris-HCl 50 mM at pH 8. NBS (non-specific binding) was measured by adding 10 μM haloperidol. The binding of the test compound was measured at either one concentration (% inhibition at 1 or 10 μM) or five different concentrations to determine affinity values (Ki). Plates were incubated at 37° C. for 120 minutes. After the incubation period, the reaction mix was then transferred to MultiScreen HTS, FC plates (Millipore), filtered and plates were washed 3 times with ice-cold 10 mM Tris-HCL (pH7.4). Filters were dried and counted at approximately 40% efficiency in a MicroBeta scintillation counter (Perkin-Elmer) using EcoScint liquid scintillation cocktail.

Broadly, the Ki is the equilibrium dissociation constant of an inhibitor or competing ligand from its target.

Sequence of Human α2δ-1 subunit of Cav2.2 calcium channel (P54289 25-1103): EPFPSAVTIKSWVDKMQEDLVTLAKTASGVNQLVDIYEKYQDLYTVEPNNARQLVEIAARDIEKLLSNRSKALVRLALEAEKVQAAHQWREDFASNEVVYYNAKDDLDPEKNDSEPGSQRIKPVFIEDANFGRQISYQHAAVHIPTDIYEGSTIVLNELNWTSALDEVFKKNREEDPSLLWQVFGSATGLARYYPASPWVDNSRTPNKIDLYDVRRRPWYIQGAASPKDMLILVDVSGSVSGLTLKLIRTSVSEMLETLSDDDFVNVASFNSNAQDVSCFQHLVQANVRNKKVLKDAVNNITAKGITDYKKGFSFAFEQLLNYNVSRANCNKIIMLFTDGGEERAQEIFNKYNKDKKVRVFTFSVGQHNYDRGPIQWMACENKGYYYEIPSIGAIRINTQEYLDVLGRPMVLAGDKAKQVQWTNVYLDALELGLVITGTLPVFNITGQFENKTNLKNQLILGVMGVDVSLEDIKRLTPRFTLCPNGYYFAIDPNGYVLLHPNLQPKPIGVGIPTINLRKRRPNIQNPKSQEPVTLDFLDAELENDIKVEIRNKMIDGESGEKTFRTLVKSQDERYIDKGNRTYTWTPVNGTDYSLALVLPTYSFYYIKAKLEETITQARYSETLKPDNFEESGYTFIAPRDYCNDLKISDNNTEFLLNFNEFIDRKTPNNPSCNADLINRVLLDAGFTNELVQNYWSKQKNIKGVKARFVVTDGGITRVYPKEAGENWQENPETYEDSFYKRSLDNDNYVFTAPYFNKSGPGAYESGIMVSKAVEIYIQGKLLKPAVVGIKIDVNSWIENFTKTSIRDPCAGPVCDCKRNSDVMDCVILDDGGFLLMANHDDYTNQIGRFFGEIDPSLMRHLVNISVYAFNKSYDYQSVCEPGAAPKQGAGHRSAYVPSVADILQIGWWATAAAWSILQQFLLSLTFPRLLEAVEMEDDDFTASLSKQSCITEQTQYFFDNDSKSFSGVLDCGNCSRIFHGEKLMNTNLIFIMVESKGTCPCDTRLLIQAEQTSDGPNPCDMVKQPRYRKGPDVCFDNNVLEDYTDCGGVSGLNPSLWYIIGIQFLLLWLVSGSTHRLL
T1 sequence (Q99720 whole entry): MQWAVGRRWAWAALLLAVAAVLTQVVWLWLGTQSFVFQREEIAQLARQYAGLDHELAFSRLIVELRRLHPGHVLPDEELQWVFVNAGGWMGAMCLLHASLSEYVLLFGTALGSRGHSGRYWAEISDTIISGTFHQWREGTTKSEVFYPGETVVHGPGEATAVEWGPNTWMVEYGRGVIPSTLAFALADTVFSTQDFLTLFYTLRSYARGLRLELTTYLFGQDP

As to `CCCC(c1nc2cccc(Br)c2c(=O)n1CC)N1CCCN(C)CC1` (centres unmarked) [Example 53, 5-bromo-3-ethyl-2-(1-(4-methyl-1,4-diazepan-1-yl)butyl)quinazolin-4(3H)-one], the Ki in assay [1] is 500 to 5000 nM; on Human σ1 receptor, below 500 nM.

Consider `CCCC(c1nc2ccc(Br)cc2c(=O)n1CC(C)C)N1CCCN(C)CC1` (centres unmarked) [Example 54, 6-bromo-3-isobutyl-2-(1-(4-methyl-1,4-diazepan-1-yl)butyl)quinazolin-4(3H)-one], for which the Ki in assay [1] is below 500 nM; at Human σ1 receptor it was 500 to 1000 nM.

Consider `CCCC(c1nc2c(F)cc(Br)cc2c(=O)n1CC)N1CCCNCC1` (centres unmarked) [Example 55, 2-(1-(1,4-diazepan-1-yl)butyl)-6-bromo-3-ethyl-8-fluoroquinazolin-4(3H)-one], for which the values for the Ki (in assay [1]; on Human σ1 receptor) were 500 to 5000 nM and above 1000 nM, respectively.

Take `CCCC(c1nc2ccc(Br)c(Cl)c2c(=O)n1CC)N1CCCN(C)CC1` (centres unmarked) [Example 56, 6-bromo-5-chloro-3-ethyl-2-(1-(4-methyl-1,4-diazepan-1-yl)butyl)quinazolin-4(3H)-one]: the figures for the Ki (in assay [1]; at Human σ1 receptor) were 500 to 5000 nM and below 500 nM, respectively.

Regarding `CCCC(c1nc2c(F)cc(Br)cc2c(=O)n1CC)N1CCCN(CC)CC1` (centres unmarked) [Example 57, 6-bromo-3-ethyl-2-(1-(4-ethyl-1,4-diazepan-1-yl)butyl)-8-fluoroquinazolin-4(3H)-one], the inhibition constant (Ki) in assay [1] was in the range of 500 to 5000 nM; at Human σ1 receptor, 500 to 1000 nM.

Take `CCCC(c1nc2ccc(Br)cc2c(=O)n1CC(C)C)N1CCCN(CC)CC1` (centres unmarked) [Example 58, 6-bromo-2-(1-(4-ethyl-1,4-diazepan-1-yl)butyl)-3-isobutylquinazolin-4(3H)-one]: the Ki (in assay [1]; on Human σ1 receptor) was below 500 nM throughout.

In the case of `CCCC(c1nc2ccc(Br)c(F)c2c(=O)n1CC)N1CCCNCC1` (centres unmarked) [Example 59, 2-(1-(1,4-diazepan-1-yl)butyl)-6-bromo-3-ethyl-5-fluoroquinazolin-4(3H)-one], the Ki in assay [1] was below 500 nM; on Human σ1 receptor, above 1000 nM.

As for `CCCC(c1nc2c(C)cc(Br)cc2c(=O)n1CC)N1CCCN(CC)CC1` (centres unmarked) [Example 60, 6-bromo-3-ethyl-2-(1-(4-ethyl-1,4-diazepan-1-yl)butyl)-8-methylquinazolin-4(3H)-one], the inhibition constant Ki in assay [1] is above 5000 nM; at Human σ1 receptor, below 500 nM.

As to `CCCC(c1nc2cc(F)c(Br)cc2c(=O)n1CCC)N1CCCN(CC)CC1` (centres unmarked) [Example 61, 6-bromo-2-(1-(4-ethyl-1,4-diazepan-1-yl)butyl)-7-fluoro-3-propylquinazolin-4(3H)-one], the inhibition constant (Ki) (in assay [1]; on Human σ1 receptor) was below 500 nM each time.

Turning to `CCCC(c1nc2cc(Br)c(F)cc2c(=O)n1CCC)N1CCCN(CC)CC1` (centres unmarked) [Example 62, 7-bromo-2-(1-(4-ethyl-1,4-diazepan-1-yl)butyl)-6-fluoro-3-propylquinazolin-4(3H)-one], the Ki (in assay [1]; on Human σ1 receptor) was below 500 nM each time.

Regarding `CCCC(c1nc2cc(Br)c(F)cc2c(=O)n1CC)N1CCCN(CC)CC1` (centres unmarked) [Example 63, 7-bromo-3-ethyl-2-(1-(4-ethyl-1,4-diazepan-1-yl)butyl)-6-fluoroquinazolin-4(3H)-one], the Ki (in assay [1]; on Human σ1 receptor) was below 500 nM in each case.

On to `CCCC(c1nc2c(Cl)cc(F)cc2c(=O)n1CC)N1CCCN(C)CC1` (centres unmarked) [Example 64, 8-chloro-3-ethyl-6-fluoro-2-(1-(4-methyl-1,4-diazepan-1-yl)butyl)quinazolin-4(3H)-one], for which the inhibition constant Ki in assay [1] is above 5000 nM; on Human σ1 receptor, above 1000 nM.

On to `CCCC(c1nc2c(Cl)cc(F)cc2c(=O)n1CC)N1CCCN(CC)CC1` (centres unmarked) [Example 65, 8-chloro-3-ethyl-2-(1-(4-ethyl-1,4-diazepan-1-yl)butyl)-6-fluoroquinazolin-4(3H)-one], for which the Ki in assay [1] is above 5000 nM; at Human σ1 receptor it was above 1000 nM.

Consider `CCC[C@H](c1nc2ccc(Br)cc2c(=O)n1CC)N1CCN2CCC1CC2` [Example 66, (R)-2-(1-(1,4-diazabicyclo[3.2.2]nonan-4-yl)butyl)-6-bromo-3-ethylquinazolin-4(3H)-one], for which the inhibitory constant (Ki) was above 5000 nM in assay [1] and above 1000 nM at Human σ1 receptor.

For the molecule `CCC[C@H](c1nc2ccc(Br)cc2c(=O)n1CCC)N1CCNC[C@H](C)C1` [Example 67, 6-bromo-2-((R)-1-((S)-6-methyl-1,4-diazepan-1-yl)butyl)-3-propylquinazolin-4(3H)-one], the Ki in assay [1] was below 500 nM; at Human σ1 receptor, above 1000 nM.

With `CCC[C@H](c1nc2ccc(Br)cc2c(=O)n1CCC)N1CCNC[C@@H](C)C1` [Example 68, 6-bromo-2-((R)-1-((R)-6-methyl-1,4-diazepan-1-yl)butyl)-3-propylquinazolin-4(3H)-one], the inhibitory constant (Ki) in assay [1] is below 500 nM; at Human σ1 receptor it was above 1000 nM.

In the case of `CCC[C@@H](c1nc2ccc(Br)cc2c(=O)n1CCC)N1CCNC[C@H](C)C1` [Example 69, 6-bromo-2-((S)-1-((S)-6-methyl-1,4-diazepan-1-yl)butyl)-3-propylquinazolin-4(3H)-one], the Ki is 500 to 5000 nM in assay [1] and above 1000 nM at Human σ1 receptor.

With `CCC[C@@H](c1nc2ccc(Br)cc2c(=O)n1CCC)N1CCNC[C@@H](C)C1` [Example 70, 6-bromo-2-((S)-1-((R)-6-methyl-1,4-diazepan-1-yl)butyl)-3-propylquinazolin-4(3H)-one], the Ki in assay [1] is above 5000 nM; at Human σ1 receptor it was above 1000 nM.

As for `CCCC(c1nc2c(Cl)cc(F)cc2c(=O)n1CC)N1CCCNCC1` (centres unmarked) [Example 71, 2-(1-(1,4-diazepan-1-yl)butyl)-8-chloro-3-ethyl-6-fluoroquinazolin-4(3H)-one], the inhibitory constant (Ki) is above 5000 nM in assay [1] and above 1000 nM on Human σ1 receptor.

In the case of `CCCC(c1nc2ccc(F)c(F)c2c(=O)n1CC)N1CCCN(C)CC1` (centres unmarked) [Example 72, 3-ethyl-5,6-difluoro-2-(1-(4-methyl-1,4-diazepan-1-yl)butyl)quinazolin-4(3H)-one], the Ki (in assay [1]; at Human σ1 receptor) was below 500 nM in each case.

In the case of `CCC[C@@H](c1nc2ccc(Cl)cc2c(=O)n1CC)N1CCN(C)C[C@H](C)C1` [Example 73, 6-chloro-2-((S)-1-((S)-4,6-dimethyl-1,4-diazepan-1-yl)butyl)-3-ethylquinazolin-4(3H)-one], the inhibition constant Ki in assay [1] was above 5000 nM; on Human σ1 receptor it was above 1000 nM.

For the molecule `CCC[C@@H](c1nc2ccc(Cl)cc2c(=O)n1CC)N1CCN(C)C[C@@H](C)C1` [Example 74, 6-chloro-2-((S)-1-((R)-4,6-dimethyl-1,4-diazepan-1-yl)butyl)-3-ethylquinazolin-4(3H)-one], the Ki in assay [1] was above 5000 nM; on Human σ1 receptor, above 1000 nM.

Regarding `CCC[C@H](c1nc2ccc(Cl)cc2c(=O)n1CC)N1CCN(C)C[C@H](C)C1` [Example 75, 6-chloro-2-((R)-1-((S)-4,6-dimethyl-1,4-diazepan-1-yl)butyl)-3-ethylquinazolin-4(3H)-one], the inhibitory constant (Ki) in assay [1] was below 500 nM; on Human σ1 receptor, 500 to 1000 nM.

As for `CCC[C@H](c1nc2ccc(Cl)cc2c(=O)n1CC)N1CCN(C)C[C@@H](C)C1` [Example 76, 6-chloro-2-((R)-1-((R)-4,6-dimethyl-1,4-diazepan-1-yl)butyl)-3-ethylquinazolin-4(3H)-one], the Ki was below 500 nM in assay [1] and 500 to 1000 nM at Human σ1 receptor.

As for `CCCC(c1nc2cc(F)c(Br)cc2c(=O)n1C)N1CCCN(C)CC1` (centres unmarked) [Example 77, 6-bromo-7-fluoro-3-methyl-2-(1-(4-methyl-1,4-diazepan-1-yl)butyl)quinazolin-4(3H)-one], the figures for the Ki (in assay [1]; on Human σ1 receptor) were 500 to 5000 nM and below 500 nM, respectively.
